The nature of data set [1]: Pharmacokinetics of single and multiple oral doses of ceftibuten in healthy adult subjects. Format: in vivo, human. As to conditions: for dose proportionality of exposure (Cmax, AUC0-12, AUC0-∞): doses of 400, 600 and 800 mg of ceftibuten. The procedure: (§1) A double-blind, randomized, placebo-controlled, sequential ascending single- and multiple dose study of ceftibuten in healthy adult subjects was conducted. There were four cohorts of 10 subjects each who received both single and multiple oral doses (8 active and 2 placebo).
Dose proportionality was examined graphically and using an ANOVA test of the dose-normalized Cmax, AUC0-12 and AUC0-∞ values. […] The AUC0-12 exposure of cis-ceftibuten is shown in FIG. 1 and the AUC0-12 exposure of trans-ceftibuten is shown in FIG. 2, showing that increases were dose proportional.

The test system of data set [2] is 99 strains of Enterobacterales. In words: Resistance development study: mutant prevention concentration (MPC) of Compound 1 with ceftibuten. Format: cell-based. The procedure:
99 strains of Enterobacterales were used in resistance development studies using ceftibuten at 1 or 2 μg/ml in combination with various concentrations of the following β-lactamase inhibitor:
Compound 1 is described in PCT Publication No. WO 2018/005662, which is incorporated herein by reference in its entirety. Concentrations of Compound 1 included 1, 2, 4 and 8 μg/ml. The goal of the study was to identify the concentration of Compound 1 (MPC, mutant prevention concentration) that will prevent appearance of mutants at two different concentrations of ceftibuten.

Data set [3] is described as follows: Safety of single and multiple ascending oral doses of ceftibuten in healthy adult subjects. In kind it is in vivo. The procedure: as §1
The event of nausea occurred in one subject in the SAD period following single administration of ceftibuten and the event of […] occurred in one subject in the MAD period following administration of the ceftibuten. […] The nausea was considered to be moderate in severity and diarrhea considered to be mild in severity with both events deemed by the investigator to be related to the study drug. The nausea persisted from Day 1 dose (SAD) until after Day 4 morning dose (MAD), despite treatment with concomitant medications. […] The incidence of treatment-related TEAEs was similar in the 400 mg (1 [12.5%] of 8 subjects) and 600 mg (2 [25.0%] of 8 subjects) ceftibuten and Pooled Placebo groups (3 [37.5%] of 8 subjects). […] The highest incidence was reported in the highest ceftibuten dose (800 mg). The most common gastrointestinal TEAEs in the 800 mg group during the MAD period were nausea in 4 out of 16 subjects (25.0%), diarrhea in 4 of 16 (25.0%), abdominal pain in 3 of 16 (18.8%), upper abdominal pain in 3 of 16 (18.8%) and abdominal discomfort in 2 of 16 subjects (12.5%). Most Gastrointestinal Disorder TEAEs were transient and mild in severity with no intervention required. […] All events were asymptomatic, resolved spontaneously after the completion of study treatment, and were not associated with elevations of alkaline phosphatase or bilirubin. • There was no trend in abnormalities that were NCS in hematology, coagulation, or urinalysis parameters.

Setting [4] is: multiple oral doses 400 mg ceftibuten BID.
Setting [5] is: multiple oral doses 600 mg ceftibuten BID.
Where [6] appears, read: multiple oral doses 800 mg ceftibuten BID.
[7] abbreviates: single oral dose 400 mg ceftibuten.
[8] abbreviates: single oral dose 600 mg ceftibuten.
Where [9] appears, read: single oral dose 800 mg ceftibuten.

`Nc1nc(/C(=C/CC(=O)O)C(=O)N[C@@H]2C(=O)N3C(C(=O)O)=CCS[C@H]23)cs1` (relative stereo) [cis-ceftibuten] came in with a renal clearance in data set [1] (400-800 mg ceftibuten oral) of 2.9 to 4.2 L/h. This compound also displayed a terminal half-life in data set [1] (400-800 mg ceftibuten oral) of 2.3 to 3.1 h. Also, the “time of peak plasma concentration post-dose” value in data set [1] (400-800 mg ceftibuten oral) was in the range of 2.3 to 3.0 h. In data set [1] (400-800 mg ceftibuten oral), this compound gave a total body clearance of 3.9 to 5.0 L/h. Further, the entries for the “urinary recovery, % of the administered dose” value in data set [1] (after multiple doses) and in data set [1] (after single doses) were 75.8-100% and 59.5-86.9%, respectively. In addition, the “dose proportionality of exposure (Cmax, AUC0-12, AUC0-∞)” value in data set [1] was “increased proportionally”. Also, the “mean maximum plasma concentration” value in data set [1] (setting [4]) was 21.7 µg/mL; in data set [1] (setting [5]), 28.1 µg/mL; in data set [1] (setting [6]), 38.8 µg/mL; in data set [1] (setting [7]) it was 17.6 µg/mL; in data set [1] (setting [8]), 24.1 µg/mL; in data set [1] (setting [9]), 28.1 µg/mL.

The compound `Nc1nc(/C(=C\CC(=O)O)C(=O)N[C@@H]2C(=O)N3C(C(=O)O)=CCS[C@H]23)cs1` (relative stereo) [trans-ceftibuten] returned a terminal half-life in data set [1] (400-800 mg ceftibuten oral) of 3.0 to 3.6 h. Also, the “time of peak plasma concentration post-dose” value in data set [1] (400-800 mg ceftibuten oral) is 3.3 to 4.8 h. The figures for the “urinary recovery, % of the administered dose” value in data set [1] (after multiple doses) and in data set [1] (after single doses) were 14.1-16.8% and 9.3-12.5%, respectively. For the same compound, the “dose proportionality of exposure (Cmax, AUC0-12, AUC0-∞)” value in data set [1] is “increased proportionally”. Moreover, the “mean maximum plasma concentration” value in data set [1] (setting [4]) worked out at 1.4 µg/mL; in data set [1] (setting [5]), 1.9 µg/mL; in data set [1] (setting [6]), 2.8 µg/mL; in data set [1] (setting [7]) it was 1.1 µg/mL; in data set [1] (setting [8]), 1.5 µg/mL; in data set [1] (setting [9]), 2.2 µg/mL.

For `O=C([O-])c1c(F)ccc2c1O[B-](O)(O)[C@@H]1C[C@H]21.[Na+].[Na+]` [Compound 1], the “% Strains with Compound 1 MPC <= 4 ug/ml” value in data set [2] (ceftibuten at 1 μg/ml, strains with Ceftibuten/Compound 1 MIC 0.125 (20 strains)) is given as 90.0%; in data set [2] (ceftibuten at 1 μg/ml, strains with Ceftibuten/Compound 1 MIC 0.25 (16 strains)) it was 56.3%; in data set [2] (ceftibuten at 1 μg/ml, strains with Ceftibuten/Compound 1 MIC 0.5 (14 strains)), 21.4%; in data set [2] (ceftibuten at 1 μg/ml, strains with Ceftibuten/Compound 1 MIC 1 (12 strains)) it was 8.3%; in data set [2] (ceftibuten at 1 μg/ml, strains with Ceftibuten/Compound 1 MIC 2 (7 strains)), 28.6%; in data set [2] (ceftibuten at 1 μg/ml, strains with Ceftibuten/Compound 1 MIC <=0.06 (30 strains)), 96.7%. The “% Strains with Compound 1 MPC <= 4 ug/ml” value amounted to 95.0% in data set [2] (ceftibuten at 2 μg/ml, strains with Ceftibuten/Compound 1 MIC 0.125 (20 strains)); 87.5% in data set [2] (ceftibuten at 2 μg/ml, strains with Ceftibuten/Compound 1 MIC 0.25 (16 strains)); 57.1% in data set [2] (ceftibuten at 2 μg/ml, strains with Ceftibuten/Compound 1 MIC 0.5 (14 strains)); 16.7% in data set [2] (ceftibuten at 2 μg/ml, strains with Ceftibuten/Compound 1 MIC 1 (12 strains)); 28.6% in data set [2] (ceftibuten at 2 μg/ml, strains with Ceftibuten/Compound 1 MIC 2 (7 strains)); 100.0% in data set [2] (ceftibuten at 2 μg/ml, strains with Ceftibuten/Compound 1 MIC <=0.06 (30 strains)).

With `Nc1nc(/C(=C/CC(=O)O)C(=O)N[C@@H]2C(=O)N3C(C(=O)O)=CCS[C@H]23)cs1` [ceftibuten], the “frequency of reported TEAEs versus dose” value in data set [3] (MAD period, 400-800 mg BID) is on record as “did not increase with increasing ceftibuten dose”. The “serious, severe, life-threatening TEAEs or TEAEs resulting in death” value in data set [3] (SAD and MAD periods) is on record as “no serious, severe, life-threatening TEAEs, or TEAEs resulting in death”. Further, the “frequency of reported TEAEs versus dose” value in data set [3] (SAD period, 400-800 mg) was “did not increase with increasing ceftibuten dose”. For the same compound, in data set [3] (human, in vivo), the ALT elevations result was “incidence and severity of which did not increase with increasing ceftibuten dose”; the “abnormalities in ECG parameters or physical examination” value is recorded as “no CS abnormalities”; the “number of TEAEs reported” value stood at 44; the “severity of TEAEs” value is on record as “All TEAEs were mild, regardless of causality, with the exception of 2 TEAEs”. For the same compound, the “vital sign parameters (blood pressure, pulse rate, body temperature, respiratory rate)” value in data set [3] (human, in vivo) was “no trends in changes from Baseline”.
